Laboratory results published in patent US12435108B2, “Teixobactin analogue and use thereof” (SUNSHINE LAKE PHARMA CO., LTD., priority 2019, dated 2025).
Like-named read-outs stand apart in the source and are kept apart here.

What was measured:
[1] = system: Mycobacterium smegmatis mc2155; test: MIC, 96-well dilution in 7H9 medium (Test Method 3); type: cell-based; details: 96-well plate, 35±2 °C, 48 hours, highest concentration 64 μg/mL
[2] = system: MRSA (SA86); details: agar plate two-fold dilution, CLSI, 35 °C, 18 h
Experimental: (§1) For the determination of the minimum inhibitory concentration (MIC), according to the CLSI standard, a two-fold dilution method with a plate and a Denlay multi-point inoculator were used to conduct the drug sensitivity test. The test bacteria were enriched with MH broth or brain heart infusion. The drug solution was diluted two-fold with MH broth to prepare various required concentrations, and appropriate amounts were added to the plates respectively. After the MH agar medium was melted, it was quantitatively poured into the plates containing the drug solution and mixed uniformly. The final concentrations of the samples were: 128, 64, 32, 16, 8, 4, 2, 1, 0.5, 0.25, 0.125, 0.063, 0.031, 0.016, 0.008, 0.004 μg/mL, respectively. The test bacteria were inoculated (inoculation amount was 10^4 cfu/point) and then incubated at constant temperature of 35 □. The results were observed after 18 h. The minimum concentration of the drug contained in the sterile growth plate was the minimum inhibitory concentration (MIC). Selection of strain types: MRSA (SA86 and SA88), MSSA (ATCC29213), Enterococcus (ET6) and Streptococcus faecalis (SF).

[3] = system: MSSA (ATCC29213); details: Test Method 1: agar plate two-fold dilution, CLSI, 35 °C, 18 h
Experimental: as §1

[4] = system: Enterococcus (ET6); details: agar plate two-fold dilution, CLSI, 35 °C, 18 h
Experimental: as §1

[5] = system: MRSA (SA88); details: agar plate two-fold dilution, CLSI, 35 °C, 18 h
Experimental: as §1

[6] = system: Streptococcus faecalis (SF); details: agar plate two-fold dilution, CLSI, 35 °C, 18 h
Experimental: as §1

[7] = system: MRSA (ATCC43300); details: 96-well plate, CAMHB, 35±2 °C, 20-24 hours, highest concentration 64 μg/mL
Experimental: (§2) For the determination of the minimum inhibitory concentration (MIC), according to the CLSI standard, the minimum inhibitory concentration of 3 ATCC standard strains (2 strains of Staphylococcus aureus and 1 strain of Enterococcus faecium) was tested by two independent repeated experiments. Compounds were diluted two-fold in a 96-well plate from the highest detection concentration of 64 μg/mL. The test plate was placed in a common incubator and incubated at 35±2° C. for 20-24 hours. The growth of bacteria in the wells was observed and recorded. Inoculation method: 5-10 bacterial single colonies from the solid medium plate resuspended in 500 μL of 1.02×CAMHB, and then OD600 was adjusted to 0.1-0.15 with a spectrophotometer; then the bacteria were diluted 300-fold with 1.02×CAMHB to ˜2×10^5 CFU/ml (stepwise dilution, first 10-fold and then 30-fold), and the prepared bacterial inoculum was inoculated in 96-well plate within 15 minutes, the number of inoculated bacteria could be obtained by plate count. Colony count: the inoculated bacteria was diluted with liquid medium from 10^−1 to 10^−3 (such as 100 μL of bacterial inoculum+900 μL of 1.02×CAMHB); 100 μl of the above bacterial dilution was evenly spread on a TSA or TSA II plate, with 2 replicates per dilution. After the medium was absorbed by TSA or TSA II for 10 minutes, the plate was inverted and cultured at 35±2° C. for 24 hours in an incubator. Record of minimum inhibitory concentration and statistics of colony count: the minimum inhibitory concentration of each compound was recorded referring to the CLSI standard; the number of colonies of bacterial inoculum of different dilutions on the TSA or TSA II plate was counted and the amount of bacterial inoculation was calculated. Selection of strain types: MRSA (ATCC43300), MSSA (ATCC29213) and VRE (ATCC700221).

[8] = system: MSSA (ATCC29213); details: Test Method 2: 96-well plate, CAMHB, 35±2 °C, 20-24 hours, highest concentration 64 μg/mL
Experimental: as §2

[9] = system: VRE (ATCC700221); details: 96-well plate, CAMHB, 35±2 °C, 20-24 hours, highest concentration 64 μg/mL
Experimental: as §2

SMILES	In vitro antibacterial activity MIC, Mycobacterium smegmatis mc2155 [1] [µg/mL]	In vitro antibacterial activity MIC, MRSA SA86 [2] [µg/mL]	In vitro antibacterial activity MIC, MSSA(ATCC29213) [3] [µg/mL]	In vitro antibacterial activity MIC, Enterococcus (ET6) [4] [µg/mL]	In vitro antibacterial activity MIC, MRSA SA88 [5] [µg/mL]	In vitro antibacterial activity MIC, Streptococcus faecalis(SF) [6] [µg/mL]	In vitro antibacterial activity MIC, MRSA(ATCC43300) [7] [µg/mL]	In vitro antibacterial activity MIC, MSSA(ATCC29213) [8] [µg/mL]	In vitro antibacterial activity MIC, VRE(ATCC700221) [9] [µg/mL]
CC[C@H](C)[C@H](NC(=O)[C@@H](Cc1ccccc1)NC)C(=O)N[C@@H](CO)C(=O)N[C@H](CCC(N)=O)C(=O)N[C@@H](C(=O)N[C@H](C(=O)N[C@@H](CO)C(=O)N[C@H]1C(=O)N[C@@H](C)C(=O)N[C@@]2(C[C@H]2CC(F)F)C(=O)N[C@@H]([C@@H](C)CC)C(=O)O[C@H]1C)[C@@H](C)CC)[C@@H](C)CC.O=C(O)C(F)(F)F [Example 1]	8	4	2	4					
CC[C@H](C)[C@H](NC(=O)[C@@H](Cc1ccccc1)NC)C(=O)N[C@@H](CO)C(=O)N[C@H](CCC(N)=O)C(=O)N[C@@H](C(=O)N[C@H](C(=O)N[C@@H](CO)C(=O)N[C@H]1C(=O)N[C@@H](C)C(=O)N[C@]2(C[C@@H]2CC(F)F)C(=O)N[C@@H]([C@@H](C)CC)C(=O)N[C@H]1C)[C@@H](C)CC)[C@@H](C)CC.O=C(O)C(F)(F)F [Example 2]		4	4	4	2	8			
C=C[C@@H]1C[C@@]12NC(=O)[C@H](C)NC(=O)[C@H](NC(=O)[C@H](CO)NC(=O)[C@@H](NC(=O)[C@H](NC(=O)[C@@H](CCC(N)=O)NC(=O)[C@H](CO)NC(=O)[C@@H](NC(=O)[C@@H](Cc1ccccc1)NC)[C@@H](C)CC)[C@@H](C)CC)[C@@H](C)CC)[C@H](C)NC(=O)[C@H]([C@@H](C)CC)NC2=O.O=C(O)C(F)(F)F [Example 4]		8	4	8	4	8			
CC[C@H](C)[C@H](NC(=O)[C@@H](Cc1ccccc1)NC)C(=O)N[C@@H](CO)C(=O)N[C@H](CCC(N)=O)C(=O)N[C@@H](C(=O)N[C@H](C(=O)N[C@@H](CO)C(=O)N[C@H]1C(=O)N[C@@H](C)C(=O)NC2(CC2)C(=O)N[C@@H]([C@@H](C)CC)C(=O)O[C@H]1C)[C@@H](C)CC)[C@@H](C)CC.O=C(O)C(F)(F)F [Example 5]		4	4	8		8			
CC[C@H](C)[C@H](NC(=O)[C@@H](Cc1ccccc1)NC)C(=O)N[C@@H](CO)C(=O)N[C@H](CCC(N)=O)C(=O)N[C@@H](C(=O)N[C@H](C(=O)N[C@@H](CO)C(=O)N[C@H]1C(=O)N[C@@H](C)C(=O)NC2(CCC2)C(=O)N[C@@H]([C@@H](C)CC)C(=O)O[C@H]1C)[C@@H](C)CC)[C@@H](C)CC.O=C(O)C(F)(F)F [Example 6]		8	8						
CC[C@H](C)[C@H](NC(=O)[C@@H](Cc1ccccc1)NC)C(=O)N[C@@H](CO)C(=O)N[C@H](CCC(N)=O)C(=O)N[C@@H](C(=O)N[C@H](C(=O)N[C@@H](CO)C(=O)N[C@H]1C(=O)N[C@@H](C)C(=O)NC2(CCCCC2)C(=O)N[C@@H]([C@@H](C)CC)C(=O)O[C@H]1C)[C@@H](C)CC)[C@@H](C)CC.O=C(O)C(F)(F)F [Example 8]		8	8		4				
CC[C@H](C)[C@H](NC(=O)[C@@H](Cc1ccccc1)NC)C(=O)N[C@@H](CO)C(=O)N[C@H](CCC(N)=O)C(=O)N[C@@H](C(=O)N[C@H](C(=O)N[C@@H](CO)C(=O)N[C@H]1C(=O)N[C@@H](C)C(=O)NC2(CCCCCC2)C(=O)N[C@@H]([C@@H](C)CC)C(=O)O[C@H]1C)[C@@H](C)CC)[C@@H](C)CC.O=C(O)C(F)(F)F [Example 9]		4	4	4		8			
CC[C@H](C)[C@H](NC(=O)[C@@H](Cc1ccccc1)NC)C(=O)N[C@@H](CO)C(=O)N[C@H](CCC(N)=O)C(=O)N[C@@H](C(=O)N[C@H](C(=O)N[C@@H](CO)C(=O)N[C@H]1C(=O)N[C@@H](C)C(=O)N[C@@]2(C[C@H]2CCN)C(=O)N[C@@H]([C@@H](C)CC)C(=O)O[C@H]1C)[C@@H](C)CC)[C@@H](C)CC.O=C(O)C(F)(F)F [Example 10]		4	2	2	4	2			
CC[C@H](C)[C@H](NC(=O)[C@H](N)Cc1ccc(-c2ccccc2)cc1)C(=O)N[C@@H](CO)C(=O)N[C@H](CCC(N)=O)C(=O)N[C@@H](C(=O)N[C@H](C(=O)N[C@@H](CO)C(=O)N[C@H]1C(=O)N[C@@H](C)C(=O)N[C@@]2(C[C@H]2CC(F)F)C(=O)N[C@@H]([C@@H](C)CC)C(=O)O[C@H]1C)[C@@H](C)CC)[C@@H](C)CC [Example 13]		8	8	8	8	8			
CC[C@H](C)[C@H](NC(=O)[C@@H](Cc1ccccc1)NC)C(=O)N[C@@H](CO)C(=O)N[C@H](CCC(N)=O)C(=O)N[C@@H](C(=O)N[C@H](C(=O)N[C@@H](CO)C(=O)N[C@H]1C(=O)N[C@@H](C)C(=O)NC(C)(C)C(=O)N[C@@H]([C@@H](C)CC)C(=O)O[C@H]1C)[C@@H](C)CC)[C@@H](C)CC.O=C(O)C(F)(F)F [Example 26]							32	64	>64
